Test results: patent publication US10640534B2 (Agios Pharmaceuticals, Inc., priority 2012, dated 2020)
pIC50: −log10 of the molar value.

tested on: U87MG cells; assay: Cellular assay, inhibition of 2-HG production in U87MG cells; type: cell-based; conditions: Homo sapiens, U-87 MG, 48 h
In short: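 HT1080 or U87MG cells (U87MG kept with 500 ug/mL G418) seeded at 5000 cells/well and treated with compound at 0.2% final DMSO. Incubated 48 h at 37 °C. 2-HG inhibition determined by LC-MS. Viability read by CellTiter-Glo luminescence at 72 h post-dose.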

| Compound | pIC50 |
| --- | --- |
| N#Cc1ccnc(N2C(=O)[C@H](O)C[C@H]2C(=O)N(c2cc(F)cc(F)c2)[C@@H](C(=O)NC2CC(F)(F)C2)c2ccccc2Cl)c1 [Compound 114, (2S,4R)—N—((R)-1-(2-Chlorophenyl)-2-((3,3-difluorocyclobutyl)amino)-2-oxoethyl)-1-(4-cyanopyridin-2-yl)-N-(3,5-difluorophenyl)-4-hydroxy-5-oxopyrrolidine-2-carboxamide] | > 7.00 |
| CCOC(=O)CN1C[C@@H](C(=O)N(c2cccc(F)c2)C(C(=O)NC2CC(F)(F)C2)c2ccccc2Cl)N(c2cc(C#N)ccn2)C1=O (stereo partly drawn) [Compound 94, Ethyl 2-((4S)-4-((1-(2-chlorophenyl)-2-((3,3-difluorocyclobutyl)amino)-2-oxoethyl)(3-fluorophenyl)carbamoyl)-3-(4-cyanopyridin-2-yl)-2-oxoimidazolidin-1-yl)acetate] | > 7.00 |
| N#Cc1ccnc(N2C(=O)[C@@H](O)C[C@H]2C(=O)N(c2cccc(F)c2)[C@H](C(=O)NC2CC(F)(F)C2)c2ccccc2Cl)c1 [Compound 118, (2S,4S)—N—((S)-1-(2-Chlorophenyl)-2-(3,3-difluorocyclobutylamino)-2-oxoethyl)-1-(4-cyano-pyridin-2-yl)-N-(3-fluorophenyl)-4-hydroxy-5-oxopyrrolidine-2-carboxamide] | > 7.00 |
| O=C(NC1CCC(F)(F)CC1)[C@H](c1ccccc1Cl)N(C(=O)[C@@H]1CCC(=O)N1c1cscn1)c1cccc(F)c1 [Compound 74] | > 7.00 |
| CC(=O)N1CC(=O)N(c2cc(C#N)ccn2)[C@H](C(=O)N(c2cccc(F)c2)[C@H](C(=O)NC2CC(F)(F)C2)c2ccccc2Cl)C1 [Compound 92, (S)-4-Acetyl-N—((S)-1-(2-chlorophenyl)-2-(3,3-difluorocyclobutylamino)-2-oxoethyl)-1-(4-cyanopyridin-2-yl)-N-(3-fluorophenyl)-6-oxopiperazine-2-carboxamide] | > 7.00 |
| CS(=O)(=O)c1cc(F)cc(N(C(=O)[C@@H]2CCC(=O)N2c2nccc(C#N)n2)[C@H](C(=O)NC2CC(F)(F)C2)c2ccccc2Cl)c1 [Compound 109, (S)—N—((S)-1-(2-Chlorophenyl)-2-((3,3-difluorocyclobutyl)amino)-2-oxoethyl)-1-(4-cyanopyrimidin-2-yl)-N-(3-fluoro-5-(methylsulfonyl)phenyl)-5-oxopyrrolidine-2-carboxamide] | 6.30 to 7.00 |
| N#Cc1ccnc(N2C(=O)CC[C@H]2C(=O)N(c2cncc(F)c2)C(C(=O)NC2CC(F)(F)C2)c2ccccc2Cl)c1 (stereo partly drawn) [Compound 91] | > 7.00 |
| O=C(NC1CC(F)(F)C1)[C@H](c1ccccc1Cl)N(C(=O)[C@@H]1CCC(=O)N1c1cc(Cl)ccn1)c1cccc(F)c1 [Compound 33] | 6.30 to 7.00 |
| N#Cc1cccnc1N1C(=O)CC[C@H]1C(=O)N(c1cccc(F)c1)[C@H](C(=O)NC1CC(F)(F)C1)c1ccccc1Cl [Compound 69, (S)—N—((S)-1-(2-Chlorophenyl)-2-((3,3-difluorocyclobutyl)amino)-2-oxoethyl)-1-(3-cyanopyridin-2-yl)-N-(3-fluorophenyl)-5-oxopyrrolidine-2-carboxamide] | > 7.00 |
| N#Cc1ccnc(N2C(=O)[C@H](O)C[C@H]2C(=O)N(c2cc(F)cc(F)c2)[C@@H](C(=O)NC2CC(F)(F)C2)c2ccccc2Cl)n1 [Compound 116, (2S,4R)—N—((R)-1-(2-Chlorophenyl)-2-((3,3-difluorocyclobutyl)amino)-2-oxoethyl)-1-(4-cyanopyrimidin-2-yl)-N-(3,5-difluorophenyl)-4-hydroxy-5-oxopyrrolidine-2-carboxamide] | 6.30 to 7.00 |
| N#Cc1ccnc(N2C(=O)OC[C@H]2C(=O)N(c2cccc(F)c2)[C@H](C(=O)NC2CC(F)(F)C2)c2ccccc2Cl)c1 [Compound 77, (S)—N—((S)-1-(2-Chlorophenyl)-2-(3,3-difluorocyclobutylamino)-2-oxoethyl)-3-(4-cyanopyridin-2-yl)-N-(3-fluorophenyl)-2-oxooxazolidine-4-carboxamide] | > 7.00 |
| O=C(NC1CC(F)(F)C1)[C@H](c1ccccc1Cl)N(C(=O)[C@@H]1CCC(=O)N1c1cscn1)c1cccc(F)c1 [Compound 43, (S)—N—((S)-1-(2-Chlorophenyl)-2-(3,3-difluorocyclobutylamino)-2-oxoethyl)-N-(3-fluorophenyl)-5-oxo-1-(thiazol-4-yl)pyrrolidine-2-carboxamide] | > 7.00 |
| N#Cc1ccnc(N2C(=O)CC[C@H]2C(=O)N(c2cccc(F)c2)[C@H](C(=O)NC2CC(F)(F)C2)c2ccccc2Cl)c1 [Compound 37] | > 7.00 |

Continued, values first:

| pIC50 | Compound |
| --- | --- |
| > 7.00 | N#Cc1cc(F)cc(N(C(=O)[C@@H]2CCC(=O)N2c2cc(C#N)ccn2)[C@H](C(=O)NC2CC(F)(F)C2)c2ccccc2F)c1 [Compound 207, (S)—N-(3-Cyano-5-fluorophenyl)-1-(4-cyanopyridin-2-yl)-N—((S)-2-((3,3-difluorocyclobutyl)amino)-1-(2-fluorophenyl)-2-oxoethyl)-5-oxopyrrolidine-2-carboxamide] |
| > 7.00 | N#Cc1ccnc(N2C(=O)OCC[C@H]2C(=O)N(c2cc(F)cc(F)c2)[C@H](C(=O)NC2CC(F)(F)C2)c2ccccc2Cl)n1 [Compound 154, (S)—N—((S)-1-(2-Chlorophenyl)-2-((3,3-difluorocyclobutyl)amino)-2-oxoethyl)-3-(4-cyanopyrimidin-2-yl)-N-(3,5-difluorophenyl)-2-oxo-1,3-oxazinane-4-carboxamide] |
| > 7.00 | N#Cc1ccnc(N2C(=O)CC[C@H]2C(=O)N(c2cccc(OC(F)(F)F)c2)C(C(=O)NC2CC(F)(F)C2)c2ccccc2Cl)n1 (stereo partly drawn) [Compound 180, (2S)—N-(1-(2-Chlorophenyl)-2-((3,3-difluorocyclobutyl)amino)-2-oxoethyl)-1-(4-cyanopyrimidin-2-yl)-5-oxo-N-(3-(trifluoromethoxy)phenyl)pyrrolidine-2-carboxamide] |
| > 7.00 | N#Cc1ccnc(N2C(=O)OCC[C@H]2C(=O)N(c2cncc(F)c2)[C@H](C(=O)NC2CCC(F)(F)CC2)c2ccccc2Cl)c1 [Compound 137, (S)—N—((S)-1-(2-Chlorophenyl)-2-((4,4-difluorocyclohexyl)amino)-2-oxoethyl)-3-(4-cyano-pyridin-2-yl)-N-(5-fluoropyridin-3-yl)-2-oxo-1,3-oxazinane-4-carboxamide] |
| > 7.00 | CNS(=O)(=O)c1cccc(N(C(=O)[C@@H]2CCC(=O)N2c2cc(C#N)ccn2)[C@H](C(=O)NC2CC(F)(F)C2)c2ccccc2Cl)c1 [Compound 157] |
| > 7.00 | N#Cc1ccnc(N2C(=O)CC[C@H]2C(=O)N(c2cc(F)cc(F)c2)[C@H](C(=O)NC2CC(F)(F)C2)c2ccc(Cl)cc2Cl)c1 [Compound 196, (S)-1-(4-Cyanopyridin-2-yl)-N—((S)-1-(2,4-dichlorophenyl)-2-((3,3-difluorocyclobutyl)-amino)-2-oxoethyl)-N-(3,5-difluorophenyl)-5-oxopyrrolidine-2-carboxamide] |
| > 7.00 | N#Cc1ccnc(N2C(=O)[C@H](F)C[C@H]2C(=O)N(c2cccc(F)c2)[C@H](C(=O)NC2CCC(F)(F)CC2)c2ccccc2Cl)c1 [Compound 151, (2S,4R)—N—((S)-1-(2-Chlorophenyl)-2-((4,4-difluorocyclohexyl)amino)-2-oxoethyl)-1-(4-cyanopyridin-2-yl)-4-fluoro-N-(3-fluorophenyl)-5-oxopyrrolidine-2-carboxamide] |
| > 7.00 | N#Cc1ccnc(N2C(=O)OC[C@H]2C(=O)N(c2cncc(F)c2)[C@H](C(=O)NC2CC(F)(F)C2)c2ccccc2Cl)c1 [Compound 135, (S)—N—((S)-1-(2-Chlorophenyl)-2-((3,3-difluorocyclobutyl)amino)-2-oxoethyl)-3-(4-cyanopyridin-2-yl)-N-(5-fluoropyridin-3-yl)-2-oxooxazolidine-4-carboxamide] |
| > 7.00 | N#Cc1ccnc(N2C(=O)[C@H](O)C[C@H]2C(=O)N(c2cc(F)cc(F)c2)[C@H](C(=O)NC2CCC(F)(F)CC2)c2ccccc2Cl)n1 [Compound 127, (2S,4R)—N—((S)-1-(2-Chlorophenyl)-2-(4,4-difluorocyclohexylamino)-2-oxoethyl)-1-(4-cyanopyrimidin-2-yl)-N-(3,5-difluorophenyl)-4-hydroxy-5-oxopyrrolidine-2-carboxamide] |
| > 7.00 | N#Cc1ccnc(N2C(=O)OC[C@H]2C(=O)N(c2cncc(F)c2)[C@H](C(=O)NC2CCC(F)(F)CC2)c2ccccc2Cl)c1 [Compound 132, (S)—N—((S)-1-(2-Chlorophenyl)-2-((4,4-difluorocyclohexyl)amino)-2-oxoethyl)-3-(4-cyanopyridin-2-yl)-N-(5-fluoropyridin-3-yl)-2-oxooxazolidine-4-carboxamide] |
| > 7.00 | N#Cc1ccnc(N2C(=O)CC[C@H]2C(=O)N(c2cccc(C3CC3)c2)[C@H](C(=O)NC2CC(F)(F)C2)c2ccccc2Cl)n1 [Compound 182, (S)—N—((S)-1-(2-Chlorophenyl)-2-((3,3-difluorocyclobutyl)amino)-2-oxoethyl)-1-(4-cyanopyrimidin-2-yl)-N-(3-cyclopropylphenyl)-5-oxopyrrolidine-2-carboxamide] |
| > 7.00 | CN(C)c1cccc(N(C(=O)[C@@H]2CCC(=O)N2c2cc(C#N)ccn2)[C@H](C(=O)NC2CC(F)(F)C2)c2ccccc2Cl)c1 [Compound 161, (S)—N—((S)-1-(2-Chlorophenyl)-2-(3,3-difluorocyclobutylamino)-2-oxoethyl)-1-(4-cyanopyridin-2-yl)-N-(3-(dimethylamino)phenyl)-5-oxopyrrolidine-2-carboxamide] |
| > 7.00 | N#Cc1ccnc(N2C(=O)CC[C@H]2C(=O)N(c2cccc(CO)c2)[C@H](C(=O)NC2CC(F)(F)C2)c2ccccc2Cl)c1 [Compound 131, (S)—N—((S)-1-(2-Chlorophenyl)-2-(3,3-difluorocyclobutylamino)-2-oxoethyl)-1-(4-cyanopyridin-2-yl)-N-(3-(hydroxymethyl)phenyl)-5-oxopyrrolidine-2-carboxamide] |
| > 7.00 | N#Cc1ccnc(N2C(=O)CC[C@H]2C(=O)N(c2ccc3[nH]ncc3c2)[C@H](C(=O)NC2CC(F)(F)C2)c2ccccc2Cl)c1 [Compound 175, (S)—N—((S)-1-(2-Chlorophenyl)-2-((3,3-difluorocyclobutyl)amino)-2-oxoethyl)-1-(4-cyanopyridin-2-yl)-N-(1H-indazol-5-yl)-5-oxopyrrolidine-2-carboxamide] |
